Assay [1] has as its system panel of 3 ATRT cell lines. As to the kind of experiment: LP-184 sensitivity in a panel of 3 ATRT cell lines. The settings on record: 2 of the 3 ATRT cell lines (high sensitivity). In kind it is cell-based. An excerpt: (§1) Patients receive several types of treatment, which may include surgery, chemotherapy and radiation, but the overall 2-year survival rate remains less than 15% for children aged younger than 3 years at diagnosis. ATRTs commonly have mutations in or loss of the gene SMARCB1. Increased LP-184 sensitivity correlates with decreased expression of SMARCB1. The panel of 3 ATRT cell lines, 2 of the 3 lines show evidence of high sensitivity to HydroxyUreaMethyl Acylfulvene (having a negative optical activity) or LP-184 with IC50s for those 2 being lower than 200 nM.

Assay [2] has as its system CHLA-02 (group 1) ATRT cell line. In words: LP-184 sensitivity in ATRT cell line CHLA-02. It is filed as cell-based.
Source text: as §1

Another assay concerns CHLA06 xenograft tumors. As to the kind of experiment: in vivo xenograft tumor study, animal model of atypical teratoid rhabdoid tumor (ATRT). Set-up: species or system NOD SCID mice. On the procedure:
LP-184 or HydroxyUreaMethyl Acylfulvene with a negative optical activity was tested for anti-tumor efficacy in an in vivo xenograft tumor study by Lantern Pharma. […] LP-184 was administered after (treatment model) the onset of disease. CHLA06 cells were implanted subcutaneously in non-obese diabetic severe combined immunodeficiency (NOD SCID) mice, formed xenograft tumors, and were thereafter treated either with vehicle control of 95% saline/5% ethanol (N=10) or 2 mg/kg or 4 mg/kg LP-184 (N=10) administered as intravenous injections.
LP-184 was delivered as 5 every other day doses over 2 cycles with a break of 5 days between cycles (IV/QaD×5on/5off×2), i.e., dosing occurred on days 0, 2, 4, 6. 8, 14, 16, 18, 20, and 22 of the study. LP-184 treatment was started 4 weeks after implantation when the tumors reached a group average volume of 150 mm^3. […] 2 out of 10 mice in the 4 mg/kg LP-184 treatment group were virtually tumor-free at study termination (tumor volume 0.5 mm^3). […] The results are highlighted in FIG. 2, wherein the Y axis denotes tumor volume in mm^3 and X axis denotes days post, treatment initiation. Since tumor growth was established before administration of the anti-cancer study drug, the defining feature of the treatment tumor model, anti-tumor treatment effects may thus be appropriately attributed to LP-184.
In CHLA06 xenograft models, tumors from the vehicle control treated mice appear vividly large (length range 1.5-2 cm) whereas tumors from 4 mg/kg LP-184 treated animals shrunk remarkably (length less than 0.5 cm) or have fully regressed.

The subject of assay [3] is CHLA-06 (group 2A/B) ATRT cell line. In words: LP-184 sensitivity in ATRT cell line CHLA-06. It is filed as cell-based.
Source text: as §1

The subject of assay [4] is CHLA-05 (group 1) ATRT cell line. As to the kind of experiment: LP-184 sensitivity in ATRT cell line CHLA-05. It is filed as cell-based.
Source text: as §1

Broadly, the IC50 is the concentration needed to halve the response being measured. A higher IC50 goes with a need for much substance.

With `CC1=C(CN(O)C(N)=O)C2=C(C)C3(CC3)[C@@](C)(O)C(=O)C2=C1` [LP-184, HydroxyUreaMethyl Acylfulvene], the IC50 is less than 200 nM in assay [1], 1770 nM in assay [2], 37.4 nM in assay [3] and 162 nM in assay [4]. Also, the “mice virtually tumor-free at study termination” value with CHLA06 xenograft tumors (4 mg/kg IV group, N=10) was 2 out of 10. Also, the “tumor volume of virtually tumor-free mice” value with CHLA06 xenograft tumors (4 mg/kg IV group, study termination) was 0.5 mm^3. Besides, the “tumor length (photographs at end of experiment)” value in the assay with CHLA06 xenograft tumors (4 mg/kg LP-184 treated animals, vehicle 1.5-2 cm) was “less than 0.5 cm”. The “tumor regression, on average” value in the assay with CHLA06 xenograft tumors (LP-184 treated groups (2 or 4 mg/kg IV), end of study day 42) is listed as “near complete tumor regression”. In addition, the “tumor regrowth after final dose” value in the assay on CHLA06 xenograft tumors (day 40, final dose on day 22) is “no tumor regrowth”. In the assay on CHLA06 xenograft tumors (relative to control, IV QoDx5 on/5 off x2, 2 mg/kg or 4 mg/kg), the Tumor growth inhibition came to 112%.

These data come from US11844772B2, “Method for treating rhabdoid tumors” (Lantern Pharma Inc., priority 2020, dated 2023).
